The record followed here is patent publication US20260001914A1, “MACROCYCLIC PEPTIDES TARGETING KRAS” (Merck Sharp & Dohme LLC, priority 2022, published 2026).

*1 amine or outer side, *2 acyl side, *3 side chain or, on linkers, in order; H or OH if unused. Where a SMILES comes first, the peptide text is derived from it. Bridges are numbered along the chain shown (N, C = ends). [ ]: non-standard residue; d: D form. NMeNva(5-imidazol-1-yl) = CN[C@@H](CCCn1ccnc1)C(=O)O; Phe(4-guanidino) = N=C(N)Nc1ccc(C[C@H](N)C(=O)O)cc1; Ala(pyrimidin-5-yl) = N[C@@H](Cc1cncnc1)C(=O)O; Gly(N-(CH2)3-guanidino) = N=C(N)NCCCNCC(=O)O; Ala(2-pyrazinyl) = N[C@@H](Cc1cnccn1)C(=O)O; X45 = CN([C@@H](Cc1ccncc1F)C(=O)[*:2])[*:1]; X14 = O=C([C@H](Cc1c(F)cncc1F)N[*:1])[*:2]; X3 = CN([C@@H](Cc1cncnc1)C(=O)[*:2])[*:1]; X26 = Cn1cc(C[C@H](N[*:1])C(=O)[*:2])cn1; X69 = O=C([C@H]1CC[C@@H](N[*:1])C1)[*:2]; NMeAha = CN[C@@H](CCN=[N+]=[N-])C(=O)O; 1Nal = N[C@@H](Cc1cccc2ccccc12)C(=O)O; NHCH2CH2SCH2CO = O=C(CSCCN[*:1])[*:2]; Ala(cPent) = N[C@@H](CC1CCCC1)C(=O)O; Phe(2-F) = N[C@@H](Cc1ccccc1F)C(=O)O; NMe3Pal = CN[C@@H](Cc1cccnc1)C(=O)O; X1 = O=C(C12CC(CN[*:1])(C1)C2)[*:2]; NMeR = CN[C@@H](CCCNC(=N)N)C(=O)O; Ala(cPr) = N[C@@H](CC1CC1)C(=O)O; NMeF = CN[C@@H](Cc1ccccc1)C(=O)O; PhLac = O=C(O)[C@@H](O)Cc1ccccc1; 3Pal = N[C@@H](Cc1cccnc1)C(=O)O; d3Pal = N[C@H](Cc1cccnc1)C(=O)O; 3Thi = N[C@@H](Cc1ccsc1)C(=O)O; Ahp(2) = CCCCC[C@H](N)C(=O)O; Cba = N[C@@H](CC1CCC1)C(=O)O; NMeNle = CCCC[C@H](NC)C(=O)O; hLeu = CC(C)CC[C@H](N)C(=O)O; αMeC = C[C@](N)(CS)C(=O)O; NMeA = CN[C@@H](C)C(=O)O; Nle = CCCC[C@H](N)C(=O)O; Nva = CCC[C@H](N)C(=O)O

KRAS-G12D protein, sequence (P01116 1-188 isoform P01116-2 G12D): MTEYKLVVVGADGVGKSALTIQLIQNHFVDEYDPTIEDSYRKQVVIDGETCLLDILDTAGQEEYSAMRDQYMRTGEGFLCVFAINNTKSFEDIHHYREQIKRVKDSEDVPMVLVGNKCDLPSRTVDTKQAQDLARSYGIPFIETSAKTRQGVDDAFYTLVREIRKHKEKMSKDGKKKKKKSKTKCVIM

This assay has as its target KRAS-G12D protein (Homo sapiens, UniProt P01116, G12D). Kind of assay: SOS-mediated nucleotide exchange assay (BODIPY-GDP / Tb-streptavidin TR-FRET). The class given is biochemical. (In general: Time-resolved FRET reads energy transfer from a long-lived donor to a nearby acceptor.)
As usually defined, the EC50 is the midpoint of the concentration-response curve. Read a high EC50 as a less potent agent. The compound `CCCC[C@@H]1NC(=O)[C@H](Cc2ccc(OC)cc2)NC(=O)[C@H](CC(C)C)NC(=O)[C@H](Cc2ccc(NC(=N)N)cc2)NC(=O)[C@H](CCC)NC(=O)[C@H](Cc2ccccc2)NC(=O)CSC[C@H](C(N)=O)NC(=O)[C@H](Cc2ccccc2)N(C)C1=O` [compound 48, cyclo(F-Nva-Phe4Gn-L-TyrOMe-Nle-NMeF-dCl-ClAc)] ({CH2CO}-F[Nva][Phe(4-guanidino)]LY(Me)[Nle][NMeF][dC]-NH2; thioether N-8) came in with a concentration for a half-maximal effect (EC50) of 4320 nM.
The same measure for `CCCC[C@@H]1NC(=O)[C@H](CCCCN)NC(=O)[C@H](CCCNC(=N)N)NC(=O)[C@H](Cc2cccc3ccccc23)NC(=O)CSCCNC(=O)[C@H](Cc2ccccc2)N(C)C(=O)[C@H](CCCC)NC(=O)[C@H](Cc2ccc(O)cc2)NC1=O` [compound 71, cyclo(INal-R-K-Nle-Y-Nle-NMeF-Cysteamine-ClAc)] (cyclo([1Nal]RK[Nle]Y[Nle][NMeF][NHCH2CH2SCH2CO])): 526 nM; for `CCCC[C@@H]1NC(=O)[C@H](Cc2cccnc2)NC(=O)[C@H](CCN=[N+]=[N-])N(C)C(=O)[C@H](Cc2ccccc2)OC(=O)C23CC(CNC(=O)[C@H](Cc4cccnc4)N(C)C(=O)[C@H](CCCC)NC(=O)[C@H](Cc4ccccc4F)NC1=O)(C2)C3` [compound 249, cyclo(FLac-NMeDabN3-3Pal-Nle-Phe2F-Nle-NMe3Pal-amBCP)] (cyclo([3Pal][Nle][Phe(2-F)][Nle][NMe3Pal][X1][PhLac][NMeAha])): 87.6 nM; for `CCCCC[C@@H]1NC(=O)[C@H](Cc2ccc(O)cc2)NC(=O)[C@H](CCCC)NC(=O)[C@H](Cc2ccc(O)cc2)NC(=O)[C@H](CCCNC(=N)N)NC(=O)[C@H](Cc2ccccc2)NC(=O)CSC[C@@H](C(N)=O)NC(=O)[C@H](Cc2ccccc2)N(C)C1=O` [compound 12, cyclo(F-R-Y-Nle-Y-Ahp-NMeF-Cl-ClAc)] ({CH2CO}-FRY[Nle]Y[Ahp(2)][NMeF]C-NH2; thioether N-8): 1190 nM.
Consider `C[C@H]1C(=O)N[C@@H](Cc2cncnc2)C(=O)N[C@@H](CC2CC2)C(=O)N[C@@H](Cc2ccccc2F)C(=O)N[C@@H](CC2CC2)C(=O)N(C)[C@@H](Cc2ccccc2)C(=O)NCC23CC(C2)(C3)C(=O)O[C@@H](Cc2ccccc2)C(=O)N1C` [compound 267, cyclo(FLac-NMeA-PyrimAla-cPrA-Phe2F-cPrA-NMeF-amBCP)] (cyclo([Ala(cPr)][NMeF][X1][PhLac][NMeA][Ala(pyrimidin-5-yl)][Ala(cPr)][Phe(2-F)])), for which the half-maximal effective concentration (EC50) was 471 nM.
`CCCC[C@@H]1NC(=O)[C@H](Cc2ccc(O)cc2)NC(=O)[C@H](CC(C)C)NC(=O)[C@H](Cc2ccc(O)cc2)NC(=O)[C@H](CCCNC(=N)N)NC(=O)[C@H](Cc2ccccc2)NC(=O)CSC[C@H](C(N)=O)NC(=O)[C@H](Cc2ccccc2)N(C)C1=O` [compound 18, cyclo(F-R-Y-L-Y-Nle-NMeF-dCl-ClAc)] registered a concentration giving a half-maximal response (EC50) of 825 nM. This EC50 is about 1.8-fold higher than that of the compound before.
Then `CCCC[C@@H]1NC(=O)[C@H](Cc2cnccn2)NC(=O)[C@H](C)N(C)C(=O)[C@H](Cc2ccccc2)OC(=O)C23CC(CNC(=O)[C@H](Cc4ccccc4)N(C)C(=O)[C@H](CCCC)NC(=O)[C@H](Cc4ccccc4F)NC1=O)(C2)C3` [compound 322, cyclo(FLac-NMeA-AlaPyrz-Nle-Phe2F-Nle-NMeF-amBCP)] (cyclo([NMeA][Ala(2-pyrazinyl)][Nle][Phe(2-F)][Nle][NMeF][X1][PhLac])), with 2310 nM; and `CC(C)CC[C@@H]1NC(=O)[C@H](Cc2ccccc2F)NC(=O)[C@H](CC2CCCC2)NC(=O)[C@H](Cc2cncnc2)NC(=O)[C@H](C)N(C)C(=O)[C@H](Cc2ccccc2)OC(=O)C23CC(CNC(=O)[C@H](Cc4cncnc4)N(C)C1=O)(C2)C3` [compound 335, cyclo(FLac-NMeA-PyrimAla-cPeA-Phe2F-hL-NMeAlaPyrim-amBCP)] (cyclo([Ala(cPent)][Phe(2-F)][hLeu][X3][X1][PhLac][NMeA][Ala(pyrimidin-5-yl)])), with 1 nM; and `CC(C)CC[C@@H]1NC(=O)[C@H](Cc2ccccc2F)NC(=O)[C@H](CC2CC2)NC(=O)[C@H](Cc2cncnc2)NC(=O)[C@H](C)N(C)C(=O)[C@H](Cc2ccccc2)OC(=O)C23CC(CNC(=O)[C@H](Cc4ccncc4F)N(C)C1=O)(C2)C3` [compound 337, cyclo(FLac-NMeA-PyrimAla-cPrA-Phe2F-hL-NMe4Pal2F-amBCP)] (cyclo([Ala(cPr)][Phe(2-F)][hLeu][X45][X1][PhLac][NMeA][Ala(pyrimidin-5-yl)])), with 3 nM.
For the compound `CCCC[C@@H]1NC(=O)[C@H](Cc2ccc(O)cc2)NC(=O)[C@H](CC(C)C)NC(=O)[C@H](Cc2ccc(O)cc2)NC(=O)[C@H](CCCNC(=N)N)NC(=O)[C@H](Cc2ccccc2)NC(=O)CSC[C@@H](C(N)=O)NC(=O)[C@H](Cc2ccccc2)N(C)C1=O` [compound 1, cyclo(F-R-Y-L-Y-Nle-NMeF-Cl-ClAc)], the 50% effective concentration (EC50) was 912 nM.
Then `CCCC[C@@H]1NC(=O)[C@H](Cc2ccccc2F)NC(=O)[C@H](CCCC)N(C)C(=O)[C@@H](Cc2cccnc2)NC(=O)[C@H](CCCNC(=N)N)N(C)C(=O)[C@H](Cc2ccccc2)NC(=O)C23CC(CNC(=O)[C@H](Cc4cccnc4)N(C)C1=O)(C2)C3` [compound 109, cyclo(F-NMeR-d3Pal-NMeNle-Phe2F-Nle-NMe3Pal-amBCP)] (cyclo(F[NMeR][d3Pal][NMeNle][Phe(2-F)][Nle][NMe3Pal][X1])), with 1200 nM.
The same measure for `CCCCC[C@@H]1NC(=O)[C@H](Cc2ccc(OC)cc2)NC(=O)[C@H](CC2CCC2)NC(=O)[C@H](Cc2cccnc2)NC(=O)[C@H](CCCNC(=N)N)NC(=O)[C@H](Cc2ccccc2)NC(=O)CSC[C@@](C)(C(N)=O)NC(=O)[C@H](Cc2ccccc2)N(C)C1=O` [compound 347, cyclo(F-R~3Pal-cBuA-TyrOMe-Ahp-NMeF-aMeCl-ClAc)]: 5.72 nM.
The compound `CCCC[C@@H]1NC(=O)[C@H](Cc2cncnc2)NC(=O)[C@H](CCCn2ccnc2)N(C)C(=O)[C@H](Cc2ccccc2)OC(=O)C23CC(CNC(=O)[C@H](Cc4cccnc4)N(C)C(=O)[C@H](CCCC)NC(=O)[C@H](Cc4ccccc4F)NC1=O)(C2)C3` [compound 240, cyclo(FLac-NMeNvalmid-PyrimAla-Nle-Phe2F-Nle-NMe3Pal-amBCP)] (cyclo([NMe3Pal][X1][PhLac][NMeNva(5-imidazol-1-yl)][Ala(pyrimidin-5-yl)][Nle][Phe(2-F)][Nle])) had an EC50 of 27.2 nM.
The same measure for `CCCCC[C@@H]1NC(=O)[C@H](Cc2ccc(OC)cc2)NC(=O)[C@H](CC2CCC2)NC(=O)[C@H](Cc2ccc(NC(=N)N)cc2)NC(=O)CN(CCCNC(=N)N)C(=O)[C@H](Cc2ccccc2)NC(=O)CSC[C@@](C)(C(N)=O)NC(=O)[C@H](Cc2ccccc2)N(C)C1=O` [compound 361, cyclo(F-NGnG-Phe4Gn-cBuA-TyrOMe-Ahp-NMeF-aMeCl-ClAc)] ({CH2CO}-F[Gly(N-(CH2)3-guanidino)][Phe(4-guanidino)][Cba]Y(Me)[Ahp(2)][NMeF][αMeC]-NH2; thioether N-8): 37 nM; for `CCCC[C@@H]1NC(=O)[C@H](Cc2cccnc2)NC(=O)[C@H](CCCNC(=N)N)NC(=O)[C@H](Cc2ccccc2)NC(=O)[C@H]2CC[C@H](C2)NC(=O)[C@H](Cc2ccccc2)N(C)C(=O)[C@H](CCCC)NC(=O)[C@H](Cc2ccc(OC)cc2)NC1=O` [compound 202, cyclo(F-R-3Pal-Nle-TyrOMe-Nle-NMeF-dbhcLeu)] (cyclo(FR[3Pal][Nle]Y(Me)[Nle][NMeF][X69])): 949 nM.
Then `CCCCC[C@@H]1NC(=O)[C@H](Cc2ccc(O)cc2)NC(=O)[C@H](CC(C)C)NC(=O)[C@H](Cc2ccc(O)cc2)NC(=O)[C@H](CCCNC(=N)N)NC(=O)[C@H](Cc2ccccc2)NC(=O)CSC[C@H](C(N)=O)NC(=O)[C@H](Cc2ccccc2)N(C)C1=O` [compound 3, cyclo(F-R-Y-L-Y-Ahp-NMeF-dCl-ClAc)], with 966 nM; and `CCCCC[C@@H]1NC(=O)[C@H](Cc2ccc(OC)cc2)NC(=O)[C@H](CC2CCC2)NC(=O)[C@H](Cc2ccc(NC(=N)N)cc2)NC(=O)[C@H](CCCNC(=N)N)NC(=O)[C@H](Cc2ccccc2)NC(=O)CSC[C@H](C(N)=O)NC(=O)[C@H](Cc2ccccc2)N(C)C1=O` [compound 352, cyclo(F-R-Phe4Gn-cBuA-TyrOMe-Ahp-NMeF-dCl-ClAc)] ({CH2CO}-FR[Phe(4-guanidino)][Cba]Y(Me)[Ahp(2)][NMeF][dC]-NH2; thioether N-8), with 4.92 nM.
The same measure for `CCCC[C@@H]1NC(=O)[C@H](Cc2cnn(C)c2)NC(=O)[C@H](C)N(C)C(=O)[C@H](Cc2ccccc2)OC(=O)C23CC(CNC(=O)[C@H](Cc4cccnc4)N(C)C(=O)[C@H](CCCC)NC(=O)[C@H](Cc4ccccc4F)NC1=O)(C2)C3` [compound 400, cyclo(FLac-NMeA-Ala4PyzlMe-Nle-Phe2F-Nle-NMe3Pal-amBCP)] (cyclo([NMe3Pal][X1][PhLac][NMeA][X26][Nle][Phe(2-F)][Nle])): 14 nM.
For `CC(C)CC[C@@H]1NC(=O)[C@H](Cc2c(F)cncc2F)NC(=O)[C@H](CC2CC2)NC(=O)[C@H](Cc2cncnc2)NC(=O)[C@H](C)N(C)C(=O)[C@H](Cc2ccccc2)OC(=O)C23CC(CNC(=O)[C@H](Cc4ccccc4)N(C)C1=O)(C2)C3` [compound 292, cyclo(FLac-NMeA-PyrimAla-cPrA-4Pal26F2-hL-NMeF-amBCP)] (cyclo([Ala(cPr)][X14][hLeu][NMeF][X1][PhLac][NMeA][Ala(pyrimidin-5-yl)])), the 50% effective concentration (EC50) amounted to 64 nM.
The same measure for `CCCC[C@@H]1NC(=O)[C@H](Cc2ccsc2)NC(=O)[C@H](C)N(C)C(=O)[C@H](Cc2ccccc2)OC(=O)C23CC(CNC(=O)[C@H](Cc4ccccc4)N(C)C(=O)[C@H](CCCC)NC(=O)[C@H](Cc4ccccc4F)NC1=O)(C2)C3` [compound 318, cyclo(FLac-NMeA-3Thi-Nle-Phe2F-Nle-NMeF-amBCP)] (cyclo([3Thi][Nle][Phe(2-F)][Nle][NMeF][X1][PhLac][NMeA])): 527 nM; for `CCCC[C@@H]1NC(=O)[C@H](Cc2cccnc2)NC(=O)[C@H](CCCNC(=N)N)NC(=O)[C@H](Cc2ccccc2)NC(=O)CSC[C@@](C)(C(=O)O)NC(=O)[C@H](Cc2cccnc2)N(C)C(=O)[C@H](CCCC)NC(=O)[C@H](Cc2ccccc2F)NC1=O` [compound 148, cyclo(F-R-3Pal-Nle-Phe2F-Nle-NMe3Pal-aMeC-ClAc)] ({CH2CO}-FR[3Pal][Nle][Phe(2-F)][Nle][NMe3Pal][αMeC]-OH; thioether N-8): 370 nM.
